Measured values from the NIST ThermoML archive (doi:10.1021/je200050q).
Numbers after ± are expanded uncertainties.

Experiment: activity coefficient (dimensionless); of the first substance listed, at infinite dilution; xn = mol fraction of the nth substance listed
Details: 101 kPa, Liquid, Chromatography, x1 = 0

Row | SMILES | activity coefficient (303.15 K) | activity coefficient (313.15 K) | activity coefficient (323.15 K) | activity coefficient (333.15 K) | activity coefficient (343.15 K) | activity coefficient (353.15 K) | activity coefficient (363.15 K)
1 | Cc1ccccc1C [1,2-dimethylbenzene] + CCCCn1cc[n+](C)c1.O=[N+]([O-])[O-] | 4.31 ± 0.24 | 4.38 ± 0.24 | 4.44 ± 0.25 | 4.49 ± 0.25 | 4.54 ± 0.25 | 4.58 ± 0.25 | 4.63 ± 0.26
2 | Cc1cccc(C)c1 [1,3-dimethylbenzene] + CCCCn1cc[n+](C)c1.O=[N+]([O-])[O-] | 5.42 ± 0.3 | 5.47 ± 0.3 | 5.5 ± 0.3 | 5.55 ± 0.31 | 5.57 ± 0.31 | 5.62 ± 0.31 | 5.61 ± 0.31
3 | Cc1ccc(C)cc1 [1,4-dimethylbenzene] + CCCCn1cc[n+](C)c1.O=[N+]([O-])[O-] | 5.06 ± 0.28 | 5.17 ± 0.29 | 5.16 ± 0.29 | 5.22 ± 0.29 | 5.22 ± 0.29 | 5.24 ± 0.29 | 5.26 ± 0.29
4 | CC(C)=O [acetone] + CCCCn1cc[n+](C)c1.O=[N+]([O-])[O-] | 1.11 ± 0.055 | 1.12 ± 0.055 | 1.13 ± 0.056 | 1.16 ± 0.058 | 1.17 ± 0.059 | 1.23 ± 0.062 | 1.25 ± 0.063
5 | CC#N [acetonitrile] + CCCCn1cc[n+](C)c1.O=[N+]([O-])[O-] | 0.6 ± 0.035 | 0.605 ± 0.035 | 0.615 ± 0.035 | 0.62 ± 0.035 | 0.626 ± 0.036 | 0.63 ± 0.036 | 0.644 ± 0.036
6 | c1ccccc1 [benzene] + CCCCn1cc[n+](C)c1.O=[N+]([O-])[O-] | 1.85 ± 0.1 | 1.88 ± 0.1 | 1.91 ± 0.1 | 1.95 ± 0.11 | 2.01 ± 0.11 | 1.99 ± 0.11 | 2.02 ± 0.11
7 | C1CCCCC1 [cyclohexane] + CCCCn1cc[n+](C)c1.O=[N+]([O-])[O-] | 29.8 ± 1.7 | 27.6 ± 1.5 | 25.6 ± 1.4 | 23.9 ± 1.3 | 22.4 ± 1.2 | 21.1 ± 1.2 | 19.9 ± 1.1
8 | ClCCl [dichloromethane] + CCCCn1cc[n+](C)c1.O=[N+]([O-])[O-] | 0.464 ± 0.031 | 0.491 ± 0.032 | 0.526 ± 0.033 | 0.552 ± 0.033 | 0.579 ± 0.034 | 0.602 ± 0.035 | 0.64 ± 0.036
9 | CCO [ethanol] + CCCCn1cc[n+](C)c1.O=[N+]([O-])[O-] | 0.564 ± 0.034 | 0.543 ± 0.033 | 0.529 ± 0.033 | 0.52 ± 0.033 | 0.511 ± 0.032 | 0.508 ± 0.032 | 0.507 ± 0.032
10 | CCOC(C)=O [ethyl acetate] + CCCCn1cc[n+](C)c1.O=[N+]([O-])[O-] | 2.93 ± 0.16 | 2.98 ± 0.17 | 3.01 ± 0.17 | 3.04 ± 0.17 | 3.07 ± 0.17 | 3.18 ± 0.18 | 3.25 ± 0.18
11 | CCc1ccccc1 [ethylbenzene] + CCCCn1cc[n+](C)c1.O=[N+]([O-])[O-] | 5.53 ± 0.31 | 5.55 ± 0.31 | 5.56 ± 0.31 | 5.56 ± 0.31 | 5.6 ± 0.31 | 5.59 ± 0.31 | 5.61 ± 0.31
12 | CCCCCCC [heptane] + CCCCn1cc[n+](C)c1.O=[N+]([O-])[O-] | 105 ± 5.9 | 97.1 ± 5.4 | 89.9 ± 5 | 83.6 ± 4.7 | 78.1 ± 4.4 | 73.2 ± 4.1 | 68.9 ± 3.8
13 | ClC(Cl)(Cl)Cl [tetrachloromethane] + CCCCn1cc[n+](C)c1.O=[N+]([O-])[O-] | 2.09 ± 0.12 | 2.17 ± 0.12 | 2.4 ± 0.13 | 2.52 ± 0.14 | 2.65 ± 0.15 | 2.81 ± 0.15 | 2.83 ± 0.16
14 | Cc1ccccc1 [toluene] + CCCCn1cc[n+](C)c1.O=[N+]([O-])[O-] | 3.09 ± 0.17 | 3.15 ± 0.17 | 3.19 ± 0.18 | 3.24 ± 0.18 | 3.29 ± 0.18 | 3.33 ± 0.18 | 3.37 ± 0.19

Results, then the compound that gave them:

Row | activity coefficient (303.15 K) | activity coefficient (313.15 K) | activity coefficient (323.15 K) | activity coefficient (333.15 K) | activity coefficient (343.15 K) | activity coefficient (353.15 K) | activity coefficient (363.15 K) | SMILES
15 | 63.9 ± 3.6 | 58.1 ± 3.2 | 53.1 ± 3 | 48.8 ± 2.7 | 45.1 ± 2.5 | 41.8 ± 2.3 | 39 ± 2.2 | CCCCCC [hexane] + CCCCn1cc[n+](C)c1.O=[N+]([O-])[O-]
16 | 0.322 ± 0.029 | 0.318 ± 0.029 | 0.315 ± 0.029 | 0.31 ± 0.029 | 0.307 ± 0.029 | 0.303 ± 0.029 | 0.302 ± 0.029 | CO [methanol] + CCCCn1cc[n+](C)c1.O=[N+]([O-])[O-]
17 | 45.3 ± 2.5 | 42.1 ± 2.4 | 39.4 ± 2.2 | 37 ± 2.1 | 34.9 ± 1.9 | 33 ± 1.8 | 31.2 ± 1.7 | CC1CCCCC1 [methylcyclohexane] + CCCCn1cc[n+](C)c1.O=[N+]([O-])[O-]
18 | 263 ± 15 | 238 ± 13 | 218 ± 12 | 200 ± 11 | 184 ± 10 | 171 ± 9.6 | 159 ± 8.9 | CCCCCCCCC [nonane] + CCCCn1cc[n+](C)c1.O=[N+]([O-])[O-]
19 | 168 ± 9.4 | 154 ± 8.6 | 141 ± 7.9 | 131 ± 7.3 | 121 ± 6.8 | 113 ± 6.3 | 106 ± 5.9 | CCCCCCCC [octane] + CCCCn1cc[n+](C)c1.O=[N+]([O-])[O-]
20 | 0.765 ± 0.04 | 0.732 ± 0.039 | 0.706 ± 0.038 | 0.687 ± 0.037 | 0.674 ± 0.037 | 0.662 ± 0.037 | 0.654 ± 0.036 | CCCO [propan-1-ol] + CCCCn1cc[n+](C)c1.O=[N+]([O-])[O-]
21 | 0.28 ± 0.028 | 0.316 ± 0.029 | 0.334 ± 0.029 | 0.39 ± 0.03 | 0.415 ± 0.03 | 0.445 ± 0.031 | 0.504 ± 0.032 | ClC(Cl)Cl [trichloromethane] + CCCCn1cc[n+](C)c1.O=[N+]([O-])[O-]
